Where two headings read alike, the source gives them in different places.

In one test the target is T1, Human mTOR (FLAG-TOR) (Homo sapiens, UniProt P42345).
T1 construct: FLAG
Nature of the test: Human mTOR kinase assay with purified enzyme, DELFIA format. In kind it is biochemical. As for the experimental part:
Enzymes are first diluted in kinase assay buffer (10 mM HEPES (pH 7.4), 50 mM NaCl, 50 mM β-glycerophosphate, 10 mM MnCl2, 0.5 mM DTT, 0.25 mM microcystin LR, and 100 mg/mL BSA). To each well, 12 μL of the diluted enzyme is mixed briefly with 0.5 μL test inhibitor or control vehicle dimethylsulfoxide (DMSO). […] The reaction plate is incubated for 2 hours (linear at 1-6 hours) at room temperature with gentle shaking and then terminated by adding 25 μL Stop buffer (20 mM HEPES (pH 7.4), 20 mM EDTA, 20 mM EGTA). […] The DELFIA Assay buffer and Enhancement solution can be purchased from PerkinElmer. 45 μL of the terminated kinase reaction mixture is transferred to a MaxiSorp plate (Nunc) containing 55 μL PBS. The His6-S6K is allowed to attach for 2 hours after which the wells are aspirated and washed once with PBS. 100 μL of DELFIA Assay buffer with 40 ng/mL Eu—P(T389)-S6K antibody is added. The antibody binding is continued for 1 hour with gentle agitation. The wells are then aspirated and washed 4 times with PBS containing 0.05% Tween-20 (PBST). 100 μL of DELFIA Enhancement solution is added to each well and the plates are read in a PerkinElmer Victor model plate reader. Data obtained is used to calculate enzymatic activity and enzyme inhibition by potential inhibitors.

Test [1] concerns the target T2, PI3K (Homo sapiens, UniProt P42336).
T2 construct: PI3 Kinase α IC50; other: PI3 Kinase α; other: PI3 Kinase α isoform, fluorescence polarization
Nature of the test: Fluorescence polarization assay for PI3K. In kind it is biochemical. The note with it: read-out: PI3 Kinase α IC50. How it is done:
(§1) This assay is used to determine the IC50 of compounds of the present invention as it identifies inhibitors of PI3 kinase by measuring inhibition.
(§2) The assay is run by placing 5 μL of diluted enzyme per well, then 5 μL of diluted compound (or 9.5 μL enzyme then 0.5 μL compound in DMSO) is added and mixed. Then, 10 μL substrate is added to start the reaction. The samples are incubated 30-60 minutes, then the reaction is stopped by adding 20 μL stop/detector mix. PI3K is diluted with reaction buffer (e.g., 5 μL or 7.5 μL PI3K into 620 μL reaction buffer), and 5 μL of diluted enzyme is used per well. 5 μL reaction buffer or drug diluted in buffer (e.g., 4 μL/100 so final DMSO is 1% in reaction) is added to each. Pipetting up and down mixes the samples. Alternatively, the enzyme can be diluted to 1215 μL. In this case 9.8 μL is added per well and 0.2 μL compound is added in DMSO. To prepare 1 mL of substrate solution, 955 μL reaction buffer, 40 μL PIP2, and 2.5 μL ATP are mixed. 10 μL of substrate is added to each well to start the reaction.
(§3) Stop/detector mix is prepared by mixing 4 μL Red detector and 1.6 μL or 2.0 μL GST-GRP with 1 mL Stop buffer, which results in 10 nM probe and 70 nM GST-GRP). 20 μL of the stop/detector mix is added to each well to stop the reaction. The plates are read after 30-90 minutes keeping the red probe solutions dark. For the zero time point, stop/detector mix is added to the enzyme just before adding substrate. For an extra control, stop/detector mix is added to buffer (no enzyme) and substrate or to just buffer (no substrate). […] Plates are read on machines with filters for Tamra. The units are mP with no enzyme controls reading app 190-220 mP units. Fully active enzyme reduces fluorescence polarization down to 70-100 mP after 30 minutes.

The target of test [2] is T3, PI3K (Homo sapiens, UniProt P48736).
T3 construct: PI3 Kinase γ IC50; other: PI3 Kinase γ; other: PI3 Kinase γ isoform, fluorescence polarization
Nature of the test: Fluorescence polarization assay for PI3K. In kind it is biochemical. The note with it: read-out: PI3 Kinase γ IC50. How it is done:
as §1, §2, §3
Background: In fluorescence polarisation assays a small probe gives low polarisation when free and higher when bound to something large.

Another test concerns prostate line LNCap. Nature of the test: In vitro cell culture growth assay (MTS), LNCap. It is filed as cell-based. The conditions noted are these: Homo sapiens, LNCaP, 72 h, LNCap cells, three days after drug treatment. How it is done: (§4) Human tumor cell lines used include prostate lines LNCap and PC3MM2, breast lines MDA468, MCF7, renal line HTB44 (A498), colon line HCT116, and ovarian line OVCAR3. Cells were plated in 96-well culture plates. One day following plating, the inhibitors were added to cells. Three days after drug treatment, viable cell densities were determined by metabolic conversion (by viable cells) of the dye MTS, a well-established cell proliferation assay. The assays were performed using an assay kit purchased from Promega Corp. (Madison, Wis.) following the protocol supplied with the kit. The MTS assay results were read in a 96-well plate reader by measuring absorbance at 490 nm. The effect of each treatment was calculated as percent of control growth relative to the vehicle-treated cells grown in the same culture plate.

In another test the test system is breast line MDA468. Nature of the test: In vitro cell culture growth assay (MTS), MDA468. It is filed as cell-based. The conditions noted are these: Homo sapiens, 72 h, MDA468 cells, three days after drug treatment. As for the experimental part: as §4
The mark [3] stands for this setting: purified human mTOR enzyme, DELFIA format.
Where [4] appears, read: PI3 Kinase α isoform, fluorescence polarization.
Where [5] appears, read: PI3 Kinase γ isoform, fluorescence polarization.

T2 sequence (P42336 whole entry, canonical isoform): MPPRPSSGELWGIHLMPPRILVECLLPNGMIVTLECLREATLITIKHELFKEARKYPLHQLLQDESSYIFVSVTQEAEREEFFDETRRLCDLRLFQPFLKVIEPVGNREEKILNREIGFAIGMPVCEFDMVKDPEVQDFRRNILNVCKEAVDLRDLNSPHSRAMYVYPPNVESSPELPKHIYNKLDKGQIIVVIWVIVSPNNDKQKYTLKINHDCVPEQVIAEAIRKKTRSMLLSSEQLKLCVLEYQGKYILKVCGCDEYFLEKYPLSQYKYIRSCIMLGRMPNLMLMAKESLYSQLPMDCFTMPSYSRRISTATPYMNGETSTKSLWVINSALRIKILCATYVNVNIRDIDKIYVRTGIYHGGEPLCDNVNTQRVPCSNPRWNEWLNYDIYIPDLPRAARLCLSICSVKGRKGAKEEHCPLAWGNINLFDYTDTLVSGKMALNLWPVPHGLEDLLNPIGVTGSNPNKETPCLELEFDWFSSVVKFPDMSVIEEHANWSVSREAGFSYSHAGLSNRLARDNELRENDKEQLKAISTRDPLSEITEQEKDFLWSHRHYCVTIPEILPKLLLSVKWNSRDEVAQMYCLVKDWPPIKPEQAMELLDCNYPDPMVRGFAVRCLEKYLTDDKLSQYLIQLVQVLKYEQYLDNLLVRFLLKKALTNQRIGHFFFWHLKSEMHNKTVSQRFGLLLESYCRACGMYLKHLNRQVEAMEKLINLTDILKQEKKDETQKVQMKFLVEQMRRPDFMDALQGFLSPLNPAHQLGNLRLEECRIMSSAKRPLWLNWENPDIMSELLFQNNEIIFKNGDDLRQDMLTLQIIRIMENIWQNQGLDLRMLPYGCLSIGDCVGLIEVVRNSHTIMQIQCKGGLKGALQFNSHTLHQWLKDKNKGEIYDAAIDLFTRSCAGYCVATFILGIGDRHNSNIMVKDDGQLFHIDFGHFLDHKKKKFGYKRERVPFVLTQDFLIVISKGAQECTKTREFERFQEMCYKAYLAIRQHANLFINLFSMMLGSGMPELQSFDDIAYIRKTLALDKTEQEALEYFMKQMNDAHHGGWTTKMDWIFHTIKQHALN
T3 sequence (P48736 whole entry, canonical isoform): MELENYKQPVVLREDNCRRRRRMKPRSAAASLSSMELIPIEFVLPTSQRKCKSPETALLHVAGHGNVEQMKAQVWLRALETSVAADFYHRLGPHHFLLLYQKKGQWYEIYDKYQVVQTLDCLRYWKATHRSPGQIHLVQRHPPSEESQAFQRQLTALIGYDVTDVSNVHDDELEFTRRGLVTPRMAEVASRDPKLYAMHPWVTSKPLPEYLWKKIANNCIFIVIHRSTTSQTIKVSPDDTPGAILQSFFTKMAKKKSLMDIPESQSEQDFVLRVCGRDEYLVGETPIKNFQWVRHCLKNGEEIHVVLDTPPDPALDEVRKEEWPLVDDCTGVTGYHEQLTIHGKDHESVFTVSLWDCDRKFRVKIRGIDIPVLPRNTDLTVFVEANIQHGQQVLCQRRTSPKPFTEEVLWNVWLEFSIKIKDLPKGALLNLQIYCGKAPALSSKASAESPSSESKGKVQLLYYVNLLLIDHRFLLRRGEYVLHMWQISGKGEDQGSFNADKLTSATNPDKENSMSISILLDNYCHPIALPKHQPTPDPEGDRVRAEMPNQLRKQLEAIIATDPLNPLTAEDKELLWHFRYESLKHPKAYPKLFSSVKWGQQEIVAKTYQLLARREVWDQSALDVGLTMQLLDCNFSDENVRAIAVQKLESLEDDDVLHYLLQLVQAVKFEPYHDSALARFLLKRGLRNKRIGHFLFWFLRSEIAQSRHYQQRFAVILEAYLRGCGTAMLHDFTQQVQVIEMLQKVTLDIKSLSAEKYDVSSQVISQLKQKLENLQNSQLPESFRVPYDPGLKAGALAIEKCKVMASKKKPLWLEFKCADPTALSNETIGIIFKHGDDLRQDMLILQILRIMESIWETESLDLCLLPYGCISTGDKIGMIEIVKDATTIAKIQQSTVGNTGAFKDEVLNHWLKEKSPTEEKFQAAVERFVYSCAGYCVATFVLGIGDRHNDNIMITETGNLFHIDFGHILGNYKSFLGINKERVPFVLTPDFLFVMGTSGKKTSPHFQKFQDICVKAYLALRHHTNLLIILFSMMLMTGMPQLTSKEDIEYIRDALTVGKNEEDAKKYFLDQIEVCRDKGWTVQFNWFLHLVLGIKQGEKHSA

Broadly, the IC50 is the concentration that gives 50% inhibition. As to `CCn1ncc2c(N3CC4CCC(C3)O4)nc(-c3ccc(NC(=O)N[C@H]4CC[C@@H](N)CC4)cc3)nc21` (relative stereo) [Example 229, 1-(cis-4-aminocyclohexyl)-3-{4-[1-ethyl-4-(8-oxa-3-azabicyclo[3.2.1]oct-3-yl)-1H-pyrazolo[3,4-d]pyrimidin-6-yl]phenyl}urea], the IC50 was 245 nM on Human mTOR (FLAG-TOR); 2850 nM at PI3K [1] (PI3 Kinase α); greater than 10000 nM on PI3K [2] (PI3 Kinase γ); 4900 nM in the test with prostate line LNCap; 4000 nM with breast line MDA468.
Taken in the same sequence, the figures for `CCn1ncc2c(N3CC4CCC(C3)O4)nc(-c3ccc(NC(=O)N[C@H]4CC[C@H](N)CC4)cc3)nc21` (relative stereo) [Example 230, 1-(trans-4-aminocyclohexyl)-3-{4-[1-ethyl-4-(8-oxa-3-azabicyclo[3.2.1]oct-3-yl)-1H-pyrazolo[3,4-d]pyrimidin-6-yl]phenyl}urea] were 15.5 nM, 2890 nM, greater than 10000 nM, 1300 nM and 1500 nM.
With `CNC(=O)Nc1ccc(-c2nc(N3CC4CCC(C3)O4)c3cnn([C@H]4CC[C@H](O)CC4)c3n2)cc1` (relative stereo) [Example 380, 1-{4-[1-(trans-4-hydroxycyclohexyl)-4-(8-oxa-3-azabicyclo[3.2.1]oct-3-yl)-1H-pyrazolo[3,4-d]pyrimidin-6-yl]phenyl}-3-methylurea], the IC50 at Human mTOR (FLAG-TOR) (setting [3]) was 0.245 nM; at PI3K [1] (setting [4]) it was 882 nM; on PI3K [2] (setting [5]), greater than 10000 nM; with prostate line LNCap, 20 nM; in the test on breast line MDA468, 70 nM.
The matching figures for `CNC(=O)Nc1ccc(-c2nc(N3CC4CCC(C3)O4)c3cnn([C@H]4CC[C@@H](O)CC4)c3n2)cc1` (relative stereo) [Example 381, 1-{4-[1-(cis-4-hydroxycyclohexyl)-4-(8-oxa-3-azabicyclo[3.2.1]oct-3-yl)-1H-pyrazolo[3,4-d]pyrimidin-6-yl]phenyl}-3-methylurea]: 0.3 nM, 227 nM, greater than 10000 nM, 20 nM and 51 nM.
Turning to `CNC(=O)Nc1ccc(-c2nc(N3CC4CCC(C3)O4)c3cnn([C@H]4CC[C@H](OC)CC4)c3n2)cc1` (relative stereo) [Example 386, 1-{4-[1-(trans-4-methoxycyclohexyl)-4-(8-oxa-3-azabicyclo[3.2.1]oct-3-yl)-1H-pyrazolo[3,4-d]pyrimidin-6-yl]phenyl}-3-methylurea], the IC50 against Human mTOR (FLAG-TOR) (setting [3]) was found to be 0.375 nM; at PI3K [1] (setting [4]) it was 1170 nM; at PI3K [2] (setting [5]), 7440 nM; in the test on prostate line LNCap it was 2 nM; in the test on breast line MDA468 it was 37 nM.
Regarding `CNC(=O)Nc1ccc(-c2nc(N3CC4CCC(C3)O4)c3cnn([C@H]4CC[C@@H](OC)CC4)c3n2)cc1` (relative stereo) [Example 387, 1-{4-[1-(cis-4-methoxycyclohexyl)-4-(8-oxa-3-azabicyclo[3.2.1]oct-3-yl)-1H-pyrazolo[3,4-d]pyrimidin-6-yl]phenyl}-3-methylurea], the IC50 came to 0.33 nM against Human mTOR (FLAG-TOR) (setting [3]); 705 nM on PI3K [1] (setting [4]); 404 nM on PI3K [2] (setting [5]); 1 nM in the test with prostate line LNCap; 19 nM in the test on breast line MDA468.
The matching figures for `CO[C@H]1CC[C@H](n2ncc3c(N4CC5CCC(C4)O5)nc(-c4ccc(NC(=O)Nc5ccc(N6CCN(C)CC6)cc5)cc4)nc32)CC1` (relative stereo) [Example 396, 1-{4-[1-(trans-4-methoxycyclohexyl)-4-(8-oxa-3-azabicyclo[3.2.1]oct-3-yl)-1H-pyrazolo[3,4-d]pyrimidin-6-yl]phenyl}-3-[4-(4-methylpiperazin-1-yl)phenyl]urea]: 0.335 nM, 145 nM, 1790 nM, less than 1 nM and 4 nM.
With `COC(=O)N1CCC(n2ncc3c(N4CC5CCC(C4)O5)nc(-c4ccc(NC(=O)NC5CC5)cc4)nc32)CC1` [Example 12, methyl 4-[6-{4-[(cyclopropylcarbamoyl)amino]phenyl}-4-(8-oxa-3-azabicyclo[3.2.1]oct-3-yl)-1H-pyrazolo[3,4-d]pyrimidin-1-yl]piperidine-1-carboxylate], the IC50 is 0.52 nM at Human mTOR (FLAG-TOR), greater than 10000 nM at PI3K [2] (PI3 Kinase γ), 23 nM with prostate line LNCap and 300 nM in the test with breast line MDA468.
For the molecule `Nc1ccc(-c2nc(N3CC4CCC(C3)O4)c3cnn(CC(F)(F)F)c3n2)cc1` [Example 374, 4-[4-(8-oxa-3-azabicyclo[3.2.1]oct-3-yl)-1-(2,2,2-trifluoroethyl)-1H-pyrazolo[3,4-d]pyrimidin-6-yl]aniline], the IC50 on Human mTOR (FLAG-TOR) (setting [3]) was found to be 57 nM; in the test with prostate line LNCap, 1000 nM; with breast line MDA468 it was 5500 nM.
Taken in the same sequence, the figures for `CNC(=O)Nc1ccc(-c2nc(N3C4COCC3C(O)C4)c3cnn(CC(F)(F)F)c3n2)cc1` (stereo not drawn) [Example 390, 1-{4-[4-(6-hydroxy-3-oxa-8-azabicyclo[3.2.1]oct-8-yl)-1-(2,2,2-trifluoroethyl)-1H-pyrazolo[3,4-d]pyrimidin-6-yl]phenyl}-3-methylurea] were 540 nM, 12000 nM and 10000 nM.
As to `Oc1ccc(-c2nc(N3CC4CCC(C3)O4)c3sccc3n2)cc1` [Example 418, 4-[4-(8-oxa-3-azabicyclo[3.2.1]oct-3-yl)thieno[3,2-d]pyrimidin-2-yl]phenol], the IC50 is 34 nM at Human mTOR (FLAG-TOR) (setting [3]), 6270 nM on PI3K [1] (setting [4]), greater than 10000 nM at PI3K [2] (setting [5]) and 17000 nM in the test on breast line MDA468.
Taken in the same sequence, the figures for `CNC(=O)Nc1ccc(-c2nc(N3CC4CCC(C3)O4)c3sc(CN4CCN(C)CC4)cc3n2)cc1` [Example 423, 1-methyl-3-(4-{6-[(4-methylpiperazin-1-yl)methyl]-4-(8-oxa-3-azabicyclo[3.2.1]oct-3-yl)thieno[3,2-d]pyrimidin-2-yl}phenyl)urea] were 19.5 nM, 322 nM, 5720 nM and 1000 nM.
Taken in the same sequence, the figures for `CS(=O)(=O)N1CCN(Cc2cc3nc(-c4ccc(NC(=O)Nc5cccnc5)cc4)nc(N4CC5CCC(C4)O5)c3s2)CC1` [Example 433, 1-{4-[6-{[4-(methylsulfonyl)piperazin-1-yl]methyl}-4-(8-oxa-3-azabicyclo[3.2.1]oct-3-yl)thieno[3,2-d]pyrimidin-2-yl]phenyl}-3-pyridin-3-ylurea] were 0.56 nM, 12 nM, 286 nM and 60 nM.

Values taken from US8129371B2, “Thienopyrimidine and pyrazolopyrimidine compounds and their use as mTOR kinase and PI3 kinase inhibitors” (Wyeth LLC, priority 2007, dated 2012).
